# Patent US9975853B2, “Tetrahydroisoquinolinone derivatives and their use in the inhibition of the HSP70 protein” (Julius-Maximilians-Universitaet Wuerzburg, priority 2014, dated 2018)
# Like-named read-outs stand apart in the source and are kept apart here. Peptide text beside a SMILES is read from it. * marks the point of attachment. Cbz = O=C(OCc1ccccc1)*; CH2F = FC*
# How the values were obtained:
# INA-6 = assay: Cell viability assay (annexin V-FITC/propidium iodide, flow cytometry) in INA-6 multiple myeloma cells; assay type: cell-based, human; conditions: for EC50: INA-6 multiple myeloma cells, 72 hours of treatment, viable cell fraction, mean of at least three determinations, read-out: INA-6 EC50(±sdv)
# Method: The effect of pharmacological Hsp70 inhibition on cell viability was analyzed after 72 hours of treatment in both non-malignant (mononuclear cells from the peripheral blood) and malignant lymphocytes (multiple myeloma cells). The mononuclear cells were separated from the peripheral blood of healthy donors by Ficoll-Hypaque density gradient centrifugation. The human cell line INA-6 represents a well-established model for multiple myeloma. The percentage of viable and apoptotic cell fractions was assessed using an annexin V-FITC/propidium iodide (PI) staining kit (Bender MedSystems, Vienna, Austria) according to manufacturer's instructions. In brief, cells were washed in PBS, incubated for 10 min in 100 ml binding buffer (10 mM HEPES/NaOH, pH 7.4, 140 mM NaCl, 2.5 mM CaCl2) containing 2.5 ml annexin V-FITC mix and 1 mg/ml propidium iodide (PI), subsequently diluted with 100 ml binding buffer and analyzed by flow cytometry (FACSCalibur/CELLQuest; Becton Dickinson, Heidelberg, Germany). Whereas viable cells are negative for both, annexin V-FITC and PI, early apoptotic cells show a positive annexin V-FITC staining, and cells in a late apoptotic stage which lose their membrane integrity additionally incorporate DNA-binding PI. To establish kill curves, concentrations of the tested compounds were titrated, and the measured viable cell fractions were further analyzed using the Prism Calculation Software (GraphPad Software Inc., La Jolla, USA).
# In FIG. 2A Western blot analyses of caspases 9 and 3, and the caspase substrate PARP (upper panel), and viability analyses (lower panel) of INA-6 MM cells upon treatment with trans-7b for 24 hours are shown. INA-6 cells were either incubated with DMSO (as a solvent control) or with 0.6 μM of trans-7b, and additionally incubated either with DMSO or the pan-caspase inhibitor Z-VAD-FMK prior to analyses by Western or viability assessment (without Z-VAD-FMK co-treatment) by Annexin V/propidum iodide double staining. For Western analyses INA-6 cell pellets were dissolved in lysis buffer (20 mM HEPES (pH 7.9), 350 mM NaCl, 1 mM MgCl2, 0.5 mM EDTA, 0.1 mM EGTA, 1% NP40, 0.5 mM dithiothreiol (DTT), 1 mM Na3VO4, 0.1 mM PMSF and 1 μg/ml aprotinin). Lysates were cleared by centrifugation, measured by quantitative protein assay (Bio-Rad, München, Germany) and subjected to SDS gel electrophoresis. Proteins were transferred onto nitrocellulose membranes (Schleicher & Schuell, Dassel, Germany), incubated with antibodies specific for caspase 9, caspase 3 or PARP (Cell Signaling Technology, Frankfurt a.Main, Germany) according to standard procedures and visualized with secondary anti-rabbit horseradish peroxidase (HRP)-conjugated antibodies using an enhanced chemoluminescence detection system (ECL, Amersham, Freiburg, Germany). […] Annexin V/propidium iodide (PI) staining was performed using a fluorescein isothiocyanate (FITC) conjugated recombinant human annexin/propidium iodide kit (BenderMedSystems, Vienna, Austria) according to the manufacturer's instructions. INA-6 cells were washed in PBS, incubated for 15 minutes in 100 ml binding buffer (10 mM HEPES/NaOH, pH 7.4, 140 mM NaCl, 2.5 mM CaCl2) containing 2.5 mL annexin V-FITC mix and 1 mg/ml PI and analyzed by flow cytometry (FACSCalibur/CELLQuest; Becton Dickinson, Heidelberg, Germany). Whereas early apoptosis is characterized by positive annexin V-FITC staining reaction, cells in a late apoptotic stage lose their membrane integrity and additionally incorporate PI. Thus, the fraction of viable cells remains negative for both annexin V-FITC and PI. […] Based on the above described experiments also viability analyses of INA-6 in comparison with non-malignant PBMCs were performed choosing a longer incubation time (72 hours) as shown in FIG. 2B or C. Raw data of three independent experiments have been calculated to establish means, standard deviation and dose-effect curves of trans-7b.
# caspases 9 and 3 = assay: Apoptosis assay: cleavage and activation of caspases 9 and 3, PARP cleavage in INA-6 cells (Western blot); assay type: cell-based, human; conditions: INA-6, Z-VAD-FMK 50 μM
# Method: Apoptosis Assays. Hsp70-dependent prevention of apoptosis was investigated by analyses of the apoptosis-inducing factors (AIF) and of the caspases 9 and 3 in INA-6 cells. INA-6 cells were treated with 0.6 μM of compound trans-7b for 8 hours prior to analyze nuclear translocation of AIF. Staining of the nuclear protein lamin A was used as a loading control. […] Analysis of cleavage of the bona fide caspase substrate PARP served as a control for caspase activation. Co-treatment with the pan-caspase inhibitor Z-VAD-FMK (50 μM) was employed as another specificity control.
# In FIG. 2A Western blot analyses of caspases 9 and 3, and the caspase substrate PARP (upper panel), and viability analyses (lower panel) of INA-6 MM cells upon treatment with trans-7b for 24 hours are shown. […] Lysates were cleared by centrifugation, measured by quantitative protein assay (Bio-Rad, München, Germany) and subjected to SDS gel electrophoresis. […] INA-6 cells were washed in PBS, incubated for 15 minutes in 100 ml binding buffer (10 mM HEPES/NaOH, pH 7.4, 140 mM NaCl, 2.5 mM CaCl2) containing 2.5 mL annexin V-FITC mix and 1 mg/ml PI and analyzed by flow cytometry (FACSCalibur/CELLQuest; Becton Dickinson, Heidelberg, Germany). […] Raw data of three independent experiments have been calculated to establish means, standard deviation and dose-effect curves of trans-7b.
melting point,"EC50 (INA-6; Homo sapiens, INA-6, 72 h)",SMILES,further results
116 to 118 °C,,"O=C(O)[C@@H]1c2ccccc2C(=O)N(c2ccc(F)cc2)[C@H]1c1ccc(F)cc1 (relative stereo) [trans-5e, trans-2,3-Bis(4-fluorophenyl)-1-oxo-1,2,3,4-tetrahydroisoquinoline-4-carboxylic acid]",
116 to 127 °C,,"O=C(O)[C@@H]1c2ccccc2C(=O)N(c2ccc(Cl)cc2)[C@H]1c1ccc(Cl)cc1 (relative stereo) [trans-5f, trans-2,3-Bis(4-chlorophenyl)-1-oxo-1,2,3,4-tetrahydroisoquinoline-4-carboxylic acid]",
109 to 115 °C,,"COc1ccc([C@H]2[C@H](C(=O)O)c3ccccc3C(=O)N2c2ccc(Oc3ccccc3)cc2)cc1 (relative stereo) [trans-5h, trans-3-(4-Methoxyphenyl)-1-oxo-2-(4-phenoxyphenyl)-1,2,3,4-tetrahydroisoquinoline-4-carboxylic acid]",
208 to 209 °C,> 100 µM,"COc1ccc(N2C(=O)c3ccccc3C(C(=O)O)C2c2ccccc2)cc1 (stereo not drawn) [cis-5c, cis-2-(4-Methoxyphenyl)-1-oxo-3-phenyl-1,2,3,4-tetrahydroisoquinoline-4-carboxylic acid]",
232 to 233 °C,,"COc1ccc(C2C(C(=O)O)c3ccccc3C(=O)N2c2ccc(OC)cc2)cc1 (stereo not drawn) [cis-5d, cis-2,3-Bis(4-methoxyphenyl)-1-oxo-1,2,3,4-tetrahydroisoquinoline-4-carboxylic acid]",EC50 (INA-6): > 100 µM
171 to 173 °C,1.3 µM,"COc1ccc(C2C(C(=O)O)c3ccccc3C(=O)N2c2ccccc2)cc1 (stereo not drawn) [trans-5b, trans-3-(4-Methoxyphenyl)-1-oxo-2-phenyl-1,2,3,4-tetrahydroisoquinoline-4-carboxylic acid]",
106 to 118 °C,,"COc1ccc(N2C(=O)c3ccccc3C(C(=O)O)C2c2ccccc2)cc1 (stereo not drawn) [trans-5c, trans-2-(4-Methoxyphenyl)-1-oxo-3-phenyl-1,2,3,4-tetrahydroisoquinoline-4-carboxylic acid]",EC50 (INA-6): 57 µM
201 to 203 °C,,"COc1ccc(C2C(C(=O)O)c3ccccc3C(=O)N2c2ccc(OC)cc2)cc1 (stereo not drawn) [trans-5d, trans-2,3-Bis(4-methoxyphenyl)-1-oxo-1,2,3,4-tetrahydroisoquinoline-4-carboxylic acid]",EC50 (INA-6): 10.1 µM
,> 100 µM,"COc1ccc(C2C(C(=O)Nc3cccc(C)n3)c3ccccc3C(=O)N2c2ccc(Oc3ccccc3)cc2)cc1 (stereo not drawn) [trans-7n, trans-3-(4-Methoxyphenyl)-N-(6-methylpyridin-2-yl)-1-oxo-2-(4-phenoxyphenyl)-1,2,3,4-tetrahydroisoquinoline-4-carboxamide]",
,0.57 µM,"COc1ccc(C2C(C(=O)Nc3cccnc3)c3ccccc3C(=O)N2c2ccccc2)cc1 (stereo not drawn) [trans-7q, trans-3-(4-Methoxyphenyl)-1-oxo-2-phenyl-N-(pyridin-3-yl)-1,2,3,4-tetrahydroisoquinoline-4-carboxamide]",

# Second part, the molecule before the results:
SMILES,melting point,"EC50 (INA-6; Homo sapiens, INA-6, 72 h)",further results
"COC(=O)C[C@H](NC(=O)[C@H](C)NC(=O)[C@@H](NC(=O)OCc1ccccc1)C(C)C)C(=O)CF [Z-VAD-FMK, reference compound] (Cbz-Val-Ala-Asp(OMe)-CH2F)",,,"trans-7b-induced induction of apoptosis under co-incubation (INA-6; INA-6, Z-VAD-FMK 50 μM with trans-7b 0.6 μM): largely prevented; caspase activation and PARP cleavage under co-treatment with trans-7b (caspases 9 and 3): sufficiently inhibited"
"O=C(O)C1c2ccccc2C(=O)N(c2ccccc2)C1c1ccccc1 (stereo not drawn) [trans-5a, trans-2,3-Diphenyl-1-oxo-1,2,3,4-tetrahydroisoquinoline-4-carboxylic acid]",226 to 229 °C,6.9 µM,
"Cc1cccc(NC(=O)C2c3ccccc3C(=O)N(c3ccc(Cl)cc3)C2c2ccc(Cl)cc2)n1 (stereo not drawn) [trans-7l, trans-2,3-Bis(4-chlorophenyl)-N-(6-methylpyridin-2-yl)-1-oxo-1,2,3,4-tetrahydroisoquinoline-4-carboxamide]",,2.9 µM,
"Cc1cc(C)cc(C2C(C(=O)Nc3cccc(C)n3)c3ccccc3C(=O)N2c2cc(C)cc(C)c2)c1 (stereo not drawn) [trans-7m, trans-2,3-Bis(3,5-dimethylphenyl)-N-(6-methylpyridin-2-yl)-1-oxo-1,2,3,4-tetrahydroisoquinoline-4-carboxamide]",,43 µM,
"Cc1cccc(NC(=O)C2c3ccccc3C(=O)N(c3ccc(O)cc3)C2c2ccc(O)cc2)n1 (stereo not drawn) [trans-7o, trans-2,3-Bis(4-hydroxyphenyl)-N-(6-methylpyridin-2-yl)-1-oxo-1,2,3,4-tetrahydroisoquinoline-4-carboxamide]",,30 µM,
"COc1ccc(C2C(C(=O)Nc3ncccn3)c3ccccc3C(=O)N2c2ccccc2)cc1 (stereo not drawn) [trans-7p, trans-3-(4-Methoxyphenyl)-1-oxo-2-phenyl-N-(pyrimidin-2-yl)-1,2,3,4-tetrahydroisoquinoline-4-carboxamide]",,0.2 µM,
"COc1ccc(C2C(C(=O)Nc3cc(C)cc(C)n3)c3ccccc3C(=O)N2c2ccccc2)cc1 (stereo not drawn) [trans-7r, trans-N-(4,6-Dimethylpyridin-2-yl)-3-(4-methoxyphenyl)-1-oxo-2-phenyl-1,2,3,4-tetrahydroisoquinoline-4-carboxamide]",,0.34 µM,
